Assays:
[1] = Solubility test: precipitation behavior in aqueous solution kept at room temperature; format: physicochemical; design: key: ◯: Not precipitated; Δ: Not remarkably precipitated but fine particles are generated; X: Remarkably precipitated; conditions: dissolved at 50 to 60° C.
Experimental: Thereafter, the resulting solution was kept at room temperature to check a precipitation behavior over time. As Comparative Example, the same experiment was performed using phytospingosine.

[2] = tested on: Aspergillus niger (A. niger); test: Antibacterial test (MIC, double dilution in 96-well plate); format: cell-based; conditions: P. ovale medium, cultured 32 to 48 hours
Experimental: (§1) As six representative microbes (fungi, and bacteria) causing skin diseases, each of Malassezia globosa, Malassezia restricta, Candia albicans (C. albicans), Aspergillus niger (A. niger), Enterococcus faecalis, and Brevundimonas vesicularis was seeded in a P. ovale medium, and cultured at 32° C. for 3 days while stirring. The resulting culture broth was diluted with P. ovale at a density of 1.0×10^7 CFU/mL, and the diluted culture broth was used as a test bacterial solution. […] (1) 200 μL of the sample solution prepared in (2) was added to the first row of a 96-well plate. 100 μL of P. ovale was added to the other wells. (2) After the first row of the mixtures were thoroughly mixed, 100 μL of each of the mixtures was taken, added to the second row, and then thoroughly mixed, and 100 μL of each of the mixtures was again taken, and added to the third row. Thereafter, this procedure was repeated to perform a double dilution. (3) After each of the microbes were cultured for 32 to 48 hours, a degree of suspension was used to determine whether the bacteria were growing. […] When it was difficult to determine whether the bacteria were growing due to the opaque mixed solution, the growth of the bacteria was observed under a microscope.

[3] = tested on: Brevundimonas vesicularis; test: as above; format: cell-based; conditions: P. ovale medium, cultured 32 to 48 hours
Experimental: as §1

[4] = tested on: Candia albicans (C. albicans); test: as above; format: cell-based; conditions: P. ovale medium, cultured 32 to 48 hours
Experimental: as §1

Enterococcus faecalis = test: as above; format: cell-based; conditions: P. ovale medium, cultured 32 to 48 hours
Experimental: as §1

Malassezia globosa = test: as above; format: cell-based; conditions: P. ovale medium, cultured 32 to 48 hours
Experimental: as §1

Malassezia restricta = test: as above; format: cell-based; conditions: P. ovale medium, cultured 32 to 48 hours
Experimental: as §1

[5] = solvent isocetyl alcohol; cited from earlier work
[6] = 0.1% by weight in distilled water, 1 day
[7] = 0.1% by weight in distilled water, 7 days
[8] = 0.1% by weight in distilled water, 30 days
[9] = 1.0% by weight in distilled water, 1 day
[10] = 1.0% by weight in distilled water, 7 days
[11] = 1.0% by weight in distilled water, 30 days

Structure (SMILES)	precipitation behavior over time [1, 6]	precipitation behavior over time [1, 7]	precipitation behavior over time [1, 8]	precipitation behavior over time [1, 9]	precipitation behavior over time [1, 10]	precipitation behavior over time [1, 11]	minimum inhibitory concentration (MIC) [2]	minimum inhibitory concentration (MIC) [3]	minimum inhibitory concentration (MIC) [4]	minimum inhibitory concentration (MIC) (Enterococcus faecalis)	minimum inhibitory concentration (MIC) (Malassezia globosa)	minimum inhibitory concentration (MIC) (Malassezia restricta)	content dissolved in isocetyl alcohol [5]
CCCCCCCCCCCCCC[C@@H](O)[C@@H](O)[C@@H](N)CO [Comparative Example, phytospingosine]	Δ	X	X	X	X	X	0.5	<0.00097	0.0312	0.062	0.001954	0.001954	approximately 1 % by weight
CCCCCCCCCCCCCC[C@@H](O)[C@@H](O)[C@H](CO)NCC1(O)OC[C@@H](O)[C@@H](O[C@H]2O[C@H](CO)[C@@H](O)[C@H](O)[C@H]2O)[C@@H]1O (stereo partly shown) [Example 1]	◯	◯	◯	◯	◯	◯	0.25	<0.00097	0.0019	0.0039	0.001954	0.001954	
CCCCCCCCCCCCCC[C@@H](O)[C@@H](O)[C@H](CO)NCC1(O)OC[C@@H](O)[C@@H](O[C@H]2O[C@H](CO)[C@H](O)[C@H](O)[C@H]2O)[C@@H]1O (stereo partly shown) [Example 2]	◯	◯	◯	◯	◯	◯							

Reference: patent publication US10172777B2, “Phytospingosine derivative and composition containing same” (AMOREPACIFIC CORPORATION, priority 2015, dated 2019)
